Measured values reported in US11084833B2, “Antibacterial agents against D,D- and L,D-transpeptidases” (priority 2016, dated 2021).
Where two headings read alike, the source gives them in different places.

Tests used:
[1] = test system: Mycobacterium tuberculosis; test: Broth dilution MIC; format: cell-based; details: 336 h, end point reading at 2 weeks
Klebsiella pneumoniae = test: Broth dilution MIC; format: cell-based; details: overnight incubation
Enterobacter cloacae = test: Broth dilution MIC; format: cell-based; details: overnight incubation
Pseudomonas aeruginosa = test: Broth dilution MIC; format: cell-based; details: overnight incubation
[2] = test system: Actinobacter baumannii 6 M-1b; test: Broth dilution MIC; format: cell-based; details: overnight incubation
LdtMt2 [3] = target: T1, LdtMt2 (Mycobacterium tuberculosis, UniProt I6Y9J2); format: binding, M. tuberculosis; details: for acyl-enzyme adduct mass: UPLC-MS
T1 sequence (I6Y9J2 35-408 limits assumed): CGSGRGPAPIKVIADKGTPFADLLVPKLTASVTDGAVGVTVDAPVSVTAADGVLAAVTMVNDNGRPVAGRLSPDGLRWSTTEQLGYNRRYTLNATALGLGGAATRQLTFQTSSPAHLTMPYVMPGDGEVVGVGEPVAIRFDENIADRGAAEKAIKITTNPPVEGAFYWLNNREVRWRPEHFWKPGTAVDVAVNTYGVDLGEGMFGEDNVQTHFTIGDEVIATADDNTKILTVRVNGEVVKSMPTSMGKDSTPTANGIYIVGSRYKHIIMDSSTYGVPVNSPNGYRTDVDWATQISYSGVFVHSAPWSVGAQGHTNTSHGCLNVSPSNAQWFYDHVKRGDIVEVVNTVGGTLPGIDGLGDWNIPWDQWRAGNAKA

LdtMt2 [4] = target: T1, LdtMt2; test: Nitrocefin hydrolyzing activity after incubation with β-lactams; format: biochemical, M. tuberculosis
LdtMab2 [5] = test: UPLC-HRMS analysis of L,D-transpeptidase/β-lactam adducts; format: binding, Mycobacterium abscessus; details: over both the non-carbapenems and carbapenems tested
LdtCl = test: as above; format: binding, Enterobacter cloacae; details: over both the non-carbapenems and carbapenems tested
LdtKp = test: as above; format: binding, Klebsiella pneumoniae; details: over both the non-carbapenems and carbapenems tested
LdtMt1 [6] = target: T2, LdtMt1 (Mycobacterium tuberculosis, UniProt O53638); test: UPLC-MS analysis of acyl-enzyme adducts; format: binding, M. tuberculosis
T2 sequence (O53638 29-251): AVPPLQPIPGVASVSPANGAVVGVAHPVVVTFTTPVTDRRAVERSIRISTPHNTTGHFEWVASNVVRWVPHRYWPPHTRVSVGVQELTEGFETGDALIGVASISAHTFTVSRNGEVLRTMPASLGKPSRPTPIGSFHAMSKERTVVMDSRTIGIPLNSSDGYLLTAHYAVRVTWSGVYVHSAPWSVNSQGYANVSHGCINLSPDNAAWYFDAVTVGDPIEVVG

[7] = target: penicillin binding protein DacB2 (Mycobacterium tuberculosis, UniProt I6Y204); test: UPLC-MS analysis of acyl-enzyme adducts
penicillin binding protein DacB2, sequence (I6Y204 23-291): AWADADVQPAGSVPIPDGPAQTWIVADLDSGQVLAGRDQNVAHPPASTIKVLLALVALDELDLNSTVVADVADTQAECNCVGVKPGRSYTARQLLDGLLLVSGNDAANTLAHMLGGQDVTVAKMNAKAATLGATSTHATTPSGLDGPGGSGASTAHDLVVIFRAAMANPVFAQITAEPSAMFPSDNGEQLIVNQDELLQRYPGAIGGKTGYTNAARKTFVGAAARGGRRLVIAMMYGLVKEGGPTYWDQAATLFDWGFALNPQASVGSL

LdtPa = test: UPLC-MS analysis of acyl-enzyme adducts; format: binding, Pseudomonas aeruginosa; details: over both the non-carbapenems and carbapenems tested
LdtMab1 [8] = test: UPLC-MS analysis of acyl-enzyme adducts; format: binding, Mycobacterium abscessus; details: over both the non-carbapenems and carbapenems tested
LdtMt1 [9] = target: T2, LdtMt1; format: binding, M. tuberculosis
LdtMt2 [10] = target: T1, LdtMt2; format: binding, M. tuberculosis
LdtMab1 [11] = test: Isothermal titration calorimetry; format: binding, M. abscessus
LdtMab2 [12] = format: binding, M. abscessus
M. tuberculosis H37Rv = format: in vivo, BALB/c mice; details: for gross lung lesions: either alone or in combination with rifampin, end of treatment
LdtMt2 [13] = target: T1, LdtMt2; test: biochemical; design: species or system M. tuberculosis; details: non-linear regression, read-out: kinact/Kapp ratio (converted)
[14] = test system: dehydropepetidase-1 (DHP-1); details: cited from earlier work
[15] = test system: Methicillin Resistant Staphylococcus aureus; test: Broth dilution MIC; format: cell-based; details: overnight incubation
[16] = test system: Methicillin Susceptible Staphylococcus aureus; test: Broth dilution MIC; format: cell-based; details: overnight incubation
[17] = Enterobacter cloacae, read-out: MIC
[18] = following incubation with β-lactam
[19] = equimolar mixture of faropenem, doripenem, biapenem and tebipenem

C[C@@H](O)[C@H]1C(=O)N2C(C(=O)[O-])=C(SC3CNC(C(=O)N(C)C)C3)S[C@H]12.[K+] (stereo in doubt) [Compound T410, Potassium (5R,6S)-3-(((3R,5R)-5-(dimethylcarbamoyl)pyrrolidin-3-yl)thio)-6-((R)-1-hydroxyethyl)-7-oxo-4-thia-1-azabicyclo[3.2.0]hept-2-ene-2-carboxylate]
MIC [1]: 8 to 16 µg/mL | MIC (Klebsiella pneumoniae): 2 to 4 µg/mL | MIC (Enterobacter cloacae; [17]): 1 to 2 µg/mL | MIC (Pseudomonas aeruginosa): 0.5 to 1 µg/mL | MIC [2]: 0.5 to 1 µg/mL

C[C@@H](O)[C@H]1C(=O)N2C(C(=O)O)=C(S[C@@H]3CN[C@H](CNS(N)(=O)=O)C3)[C@H](C)[C@H]12 [doripenem]
acyl-enzyme adduct mass (LdtMt2 [3]): 123 Da | inhibition of nitrocefin hydrolysis (LdtMt2 [4]; [18]): robustly inhibited

C[C@@H](O)[C@H]1C(=O)N2C(C(=O)O)=C([C@H]3CCCO3)S[C@H]12 [faropenem]
acyl-enzyme adduct mass (LdtMt2 [3]): +86 Da | adduct detected in competition assay (LdtMt2 [3]; [19]): the only adduct detected | preferential reaction in β-lactam mixtures (LdtMab2 [5]): preferentially reacted with faropenem | preferential reaction in β-lactam mixtures (LdtCl): preferentially reacted with faropenem | preferential reaction in β-lactam mixtures (LdtKp): preferentially reacted with faropenem | acyl-enzyme adduct mass (LdtMt1 [6]; UPLC-MS): +86 Da | adduct detected in competition assay (LdtMt1 [6]; [19]): the only adduct detected | species detected in competition assay [7]: the only species detected | preferential reaction in β-lactam mixtures (LdtPa): preferentially reacted with faropenem | preferential reaction in β-lactam mixtures (LdtMab1 [8]): preferentially reacted with faropenem | inhibition of nitrocefin hydrolysis (LdtMt2 [4]; [18]): robustly inhibited | ITC binding (LdtMt1 [9]): single-modality binding | ITC binding (LdtMt2 [10]): single-modality binding | ITC binding (LdtMab1 [11]): Binding | ITC binding (LdtMab2 [12]): Binding | gross lung lesions (M. tuberculosis H37Rv): prevented the development of gross lung lesions

COC(=O)CCSC1=C(C(=O)[O-])N2C(=O)[C@H]([C@@H](C)O)[C@H]2S1.[K+] [Compound T408, Potassium (5R,6S)-6-((R)-1-hydroxyethyl)-3-((3-methoxy-3-oxopropyl)thio)-7-oxo-4-thia-1-azabicyclo[3.2.0]hept-2-ene-2-carboxylate]
MIC [1]: 0.5 to 1 µg/mL | MIC (Klebsiella pneumoniae): 8 to 16 µg/mL | MIC (Enterobacter cloacae; unit as printed for T408): 4-8 g/mL | MIC [2]: 16 to 32 µg/mL

C[C@@H](O)[C@H]1C(=O)N2C(C(=O)[O-])=C(SC3CNC(CNS(N)(=O)=O)C3)S[C@H]12.[K+] (stereo in doubt) [Compound T409, Potassium (5R,6S)-6-((R)-1-hydroxyethyl)-7-oxo-3-(((3R,5R)-5-((sulfamoylamino)methyl)pyrrolidin-3-yl)thio)-4-thia-1-azabicyclo[3.2.0]hept-2-ene-2-carboxylate]
MIC [1]: 0.5 to 1 µg/mL

CC(=O)OCC1=C(C(=O)O)N2C(=O)[C@@H](NC(=O)Cc3cccs3)[C@H]2SC1 [cephalothin]
inhibition of nitrocefin hydrolysis (LdtMt2 [4]): comparable inhibitory activity

CC1(C)S[C@@H]2[C@H](NC(=O)C(C(=O)O)c3ccccc3)C(=O)N2[C@H]1C(=O)O (stereo partly drawn) [carbenicillin]
adduct formation (LdtMt2 [3]): failed to bind | adduct mass ([7]; UPLC-MS): +379 Da

C[C@@H](O)[C@H]1C(=O)N2C(C(=O)[O-])=C(SCCO)S[C@H]12.[K+] [Compound T407, Potassium (5R,6S)-6-((R)-1-hydroxyethyl)-3-((2-hydroxyethyl)thio)-7-oxo-4-thia-1-azabicyclo[3.2.0]hept-2-ene-2-carboxylate]
MIC [1]: 2 to 4 µg/mL | MIC (Klebsiella pneumoniae): 8 to 16 µg/mL

C[C@@H](O)[C@H]1C(=O)N2C(C(=O)O)=C(SC3CN(C4=NCCS4)C3)[C@H](C)[C@H]12 [tebipenem]
ITC binding (LdtMt1 [9]): single-modality binding | ITC binding (LdtMt2 [10]): single-modality binding | ITC binding (LdtMab1 [11]): Binding | ITC binding (LdtMab2 [12]): Binding

C[C@@H](O)[C@H]1C(=O)N2C(C(=O)[O-])=C(SC3Cn4cnc[n+]4C3)[C@H](C)[C@H]12 (stereo partly drawn) [biapenem]
adduct formation (LdtMt2 [3]): Stable adducts could be detected | kinact/KI (LdtMt2 [13]): 3830 M⁻¹ s⁻¹ | inhibition of nitrocefin hydrolysis (LdtMt2 [4]; [18]): robustly inhibited | gross lung lesions (M. tuberculosis H37Rv): prevented the development of gross lung lesions | activity on bacterial load (CFUs) in the lungs (M. tuberculosis H37Rv; mouse, in vivo): bacteriostatic activity | inactivation by DHP-1 [14]: resistant to inactivation by DHP-1

C[C@@H](O)C1C(=O)N2C(C(=O)[O-])=C(SC3CN(C4=NCCS4)C3)SC12.[K+] (stereo in doubt) [Compound T405, Potassium (5S,6R)-3-((1-(4,5-dihydrothiazol-2-yl)azetidin-3-yl)thio)-6-((R)-1-hydroxyethyl)-7-oxo-4-thia-1-azabicyclo[3.2.0]hept-2-ene-2-carboxylate]
MIC [1]: 0.5 to 1 µg/mL | MIC [15]: 0.03 to 0.06 µg/mL | MIC [16]: 0.03 to 0.06 µg/mL | MIC (Klebsiella pneumoniae): 0.125 to 0.25 µg/mL | MIC (Enterobacter cloacae; [17]): 0.25 to 0.5 µg/mL | MIC (Pseudomonas aeruginosa): 4 to 8 µg/mL | MIC [2]: 4 to 8 µg/mL

CCCSC1=C(C(=O)[O-])N2C(=O)[C@H]([C@@H](C)O)[C@H]2S1.[K+] [Compound T406, Potassium (5R,6S)-6-((R)-1-hydroxyethyl)-3-propylthio-7-oxo-4-thia-1-azabicyclo[3.2.0]hept-2-ene-2-carboxylate]
MIC [1]: 0.5 to 1 µg/mL | MIC (Klebsiella pneumoniae): 0.25 to 0.5 µg/mL | MIC (Enterobacter cloacae; [17]): 4 to 8 µg/mL | MIC [2]: 4 to 8 µg/mL
